The test system of one experiment is Notch4 ICD. In words: qPCR analysis of Notch4 expression. The experiment is classed as cell-based, human. As to conditions: C8161, 10 nM, 8–72 h. Here is the method:
For the qPCR analysis of Nodal and Notch expression, total RNA was isolated from cells using the PerfectPure RNA Cell Isolation kit (5Prime) and then reverse-transcribed using 1 μg RNA, RT master mix cocktail and MMLV reverse transcriptase. qPCR was performed on a 7500 Real-Time PCR System (Life Technologies) using manufacturer recommended protocol. TaqMan gene expression human primer/probe sets (Applied Biosystems) utilized were Nodal (Hs00250630_s1) and Notch4 (Hs00270200_m1). Target gene expression was normalized to appropriate house-keeping genes (e.g., RPLP0 or GAPDH). Data was analyzed using Life Technologies Sequence Detection Software.
For orientation: Real-time PCR tracks product formation cycle by cycle.

In the next experiment the test system is HCT-116. In words: NCI 60 cytotoxicity screening. Format: cell-based. Particulars: Homo sapiens.
For another experiment, the target named is T1, TRAP1 (Homo sapiens, UniProt Q12931).
T1 sequence (Q12931 60-704): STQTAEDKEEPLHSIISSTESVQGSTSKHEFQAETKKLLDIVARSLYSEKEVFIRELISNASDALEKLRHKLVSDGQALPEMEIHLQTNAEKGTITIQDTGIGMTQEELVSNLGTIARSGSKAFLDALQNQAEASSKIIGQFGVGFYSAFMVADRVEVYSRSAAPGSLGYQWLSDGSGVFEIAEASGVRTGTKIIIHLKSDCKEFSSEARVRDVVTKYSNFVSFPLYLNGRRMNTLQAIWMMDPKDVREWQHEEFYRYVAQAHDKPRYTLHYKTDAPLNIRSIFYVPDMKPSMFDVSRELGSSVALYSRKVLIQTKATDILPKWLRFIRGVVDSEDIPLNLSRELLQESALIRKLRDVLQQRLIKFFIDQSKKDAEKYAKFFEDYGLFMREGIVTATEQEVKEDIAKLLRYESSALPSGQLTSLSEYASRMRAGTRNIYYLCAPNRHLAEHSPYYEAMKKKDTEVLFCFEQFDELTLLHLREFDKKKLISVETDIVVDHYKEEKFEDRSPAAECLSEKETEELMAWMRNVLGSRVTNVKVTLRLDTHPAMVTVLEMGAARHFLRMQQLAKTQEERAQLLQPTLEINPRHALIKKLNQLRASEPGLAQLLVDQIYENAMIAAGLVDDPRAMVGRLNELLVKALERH
In words: Western blot of TRAP1 protein level. Format: cell-based. The arrangement: purchased Abcam ab123775. Here is the method: The methods for detecting TRAP1 proteins were as follows: 4 × 10^5 SKOV-3 cells and 8 × 10^5 COLO-205 cells were seeded onto 6-well plates. After 18 h, the culture medium was changed to contain 50, 100, 200, and 400 nM CVM-1125, and samples were recovered for analysis at 24 or 48 h. To explore the pathway of CVM-1125 degradation of TRAP1 protein, the experimental design was as follows: 1 × 10^6 COLO-205 cells were seeded onto 6-well plates. After 18 h, the culture medium was changed to contain 200 nM CVM-1125, 25 µM chloroquine (CQ), and 2.5 µM MG132, and samples were recovered for analysis at 24 h. Cells at 80% confluence were collected with trypsin, centrifuged, and harvested by PBS into a sample buffer (1M Tris pH 6.8, 50% Glycerol, 10% SDS, 1% bromophenol blue, and 2-mercaptoethanol). Cell lysates were heated at 95°C for 10 min and loaded onto 10% SDS-PAGE. Proteins separated on the gel were transferred to a 0.45 μM PVDF membrane (Merk Milipore, IPVH00010) at 4°C overnight and was then blocked at room temperature with 5% skim milk for 30 min. The primary antibodies were diluted with 5% skim milk in PBS for β-actin (Sigma, A5441, 1:20,000) and TRAP1 (Santa Cruz, sc-13557, 1:100) and incubated for 2 h at room temperature. […]

The test system of a further experiment is HCC-2998. In words: NCI 60 cytotoxicity screening. Format: cell-based. Particulars: Homo sapiens; HCC-2998, Colon.
The subject of another experiment is SNB-75. The experiment can be described thus: NCI 60 cytotoxicity screening. The experiment is classed as cell-based. As to conditions: Homo sapiens; SNB-75, CNS.
The next experiment relates to SF-295. The experiment can be described thus: NCI 60 cytotoxicity screening. Format: cell-based. As to conditions: Homo sapiens; SF-295, CNS.
The test system of another experiment is COLO 205. In words: NCI 60 cytotoxicity screening. Format: cell-based. As to conditions: Homo sapiens; COLO 205, Colon.

The GI50 is the concentration that inhibits growth by half. High values mean lower sensitivity of the cells, low ones greater sensitivity of the cells. For orientation: IC50 means the concentration at which inhibition is half-maximal. Higher therefore signals a need for much substance.

For `COc1ccc2[nH]c(-c3cccc(F)c3)cc(=O)c2c1OP(=O)(O)O` [CVM-1118], the “expression of Notch4 ICD (mRNA)” value with Notch4 ICD is reported as “decreased”.

Take `COc1ccc2[nH]c(-c3cccc(F)c3)cc(=O)c2c1O` [CVM-1125]: the GI50 in the experiment on HCT-116 (HCT-116, Colon) was determined as 33 nM; in the experiment on HCC-2998, 32.1 nM; with SNB-75, 15 nM; with SF-295, 25.5 nM; in the experiment on COLO 205, 25.2 nM. Moreover, the concentration for half-maximal inhibition (IC50) with HCT-116 (HCT-116, refers to Supplementary Table S2) was determined as 33 nM. Besides, the TRAP1 protein levels entry at TRAP1 (COLO205, 50–400 nM) is “reduced with increasing concentrations”; on TRAP1 (SKOV3, 50–400 nM), “reduced with increasing concentrations”.

Values taken from publication PMC10283505, “CVM-1118 (foslinanib), a 2-phenyl-4-quinolone derivative, promotes apoptosis and inhibits vasculogenic mimicry via targeting TRAP1” (Pathology and Oncology Research, 2023).
